Measurements: PubChem BioAssay (NCI)
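96-well plates; 48 h exposure; 5 concentrations. Endpoints by linear interpolation between flanking doses. Not reached: highest tested concentration assigned. Definition used: TGI = concentration required for complete inhibition of growth.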

What was measured:
Assay in all cases: inhibition of tumour cell growth, NCI panel, 48 h
[1] = test system: RPMI-8226 leukemia
[2] = test system: CCRF-CEM leukemia
[3] = test system: A498 renal
[4] = test system: TK-10 renal
[5] = test system: HCT-15 colon
[6] = test system: SR leukemia
[7] = test system: EKVX NSCLC
[8] = test system: MDA-MB-231 breast
[9] = test system: NCI-H460 lung
[10] = test system: NCI-H226 lung
[11] = test system: LOX IMVI melanoma
[12] = test system: SF-539 CNS
[13] = test system: ACHN renal
[14] = test system: MDA-N
[15] = test system: A549 NSCLC
[16] = test system: UO-31 renal
[17] = test system: SK-OV-3 ovarian
[18] = test system: OVCAR-3 ovarian
[19] = test system: OVCAR-8 ovarian
[20] = test system: OVCAR-5 ovarian
[21] = test system: CAKI-1 renal
[22] = test system: MDA-MB-435
[23] = test system: UACC-257 melanoma
[24] = test system: NCI-H522 lung
[25] = test system: HS 578T breast
[26] = test system: 786-0 renal
[27] = test system: DU-145 prostate
[28] = test system: HOP-62 NSCLC
[29] = test system: U251 CNS
[30] = test system: UACC-62 melanoma
[31] = test system: SF-268 CNS
[32] = test system: SF-295 CNS
[33] = test system: COLO 205 colon
[34] = test system: K-562 leukemia
[35] = test system: SK-MEL-5 melanoma
[36] = test system: HOP-92 NSCLC
[37] = test system: SN12C renal
[38] = test system: SNB-75 CNS
[39] = test system: IGROV1 ovarian
[40] = test system: HT29 colon
[41] = test system: M14 melanoma
[42] = test system: KM12 colon
[43] = test system: RXF 393 renal
[44] = test system: NCI-H23 lung
[45] = test system: MCF7 breast
[46] = test system: HCT-116 colon
[47] = test system: HCC-2998 colon
[48] = test system: SW-620 colon
[49] = test system: MOLT-4 leukemia
[50] = test system: PC-3 prostate
[51] = test system: SNB-19 CNS
[52] = test system: SK-MEL-28 melanoma
[53] = test system: MALME-3M melanoma
[54] = test system: T-47D breast
[55] = test system: OVCAR-4 ovarian
[56] = test system: SK-MEL-2 melanoma
[57] = test system: NCI/ADR-RES ovarian
[58] = test system: BT-549 breast

Measured: TGI

CC(C)(C)OC(=O)/C=C/C(=O)O/C=C/[N+](=O)[O-]
not listed: [49] | [50] | [51] | [52] | [53] | [54] | [55] | [56] | [57] | [58]
> 100 µM: all other assays above

COc1ccc(/C=N/n2c(C)n[nH]c2=O)cc1
not listed: [4] | [6] | [11] | [24] | [25] | [35] | [36] | [39] | [43]
> 100 µM: all other assays above
